For data set [1], the target named is Bromodomain-containing protein 4 (Homo sapiens, UniProt O60885). Briefly: Inhibition of human BRD4 bromodomain 1 (unknown origin) by Alexa Fluor 647-JQ1 probe-based fluoresence polarization competition assay.
For data set [2], the target named is T1, ATPase family AAA domain-containing protein 2 (Homo sapiens, UniProt Q6PL18).
T1 sequence (Q6PL18 whole entry): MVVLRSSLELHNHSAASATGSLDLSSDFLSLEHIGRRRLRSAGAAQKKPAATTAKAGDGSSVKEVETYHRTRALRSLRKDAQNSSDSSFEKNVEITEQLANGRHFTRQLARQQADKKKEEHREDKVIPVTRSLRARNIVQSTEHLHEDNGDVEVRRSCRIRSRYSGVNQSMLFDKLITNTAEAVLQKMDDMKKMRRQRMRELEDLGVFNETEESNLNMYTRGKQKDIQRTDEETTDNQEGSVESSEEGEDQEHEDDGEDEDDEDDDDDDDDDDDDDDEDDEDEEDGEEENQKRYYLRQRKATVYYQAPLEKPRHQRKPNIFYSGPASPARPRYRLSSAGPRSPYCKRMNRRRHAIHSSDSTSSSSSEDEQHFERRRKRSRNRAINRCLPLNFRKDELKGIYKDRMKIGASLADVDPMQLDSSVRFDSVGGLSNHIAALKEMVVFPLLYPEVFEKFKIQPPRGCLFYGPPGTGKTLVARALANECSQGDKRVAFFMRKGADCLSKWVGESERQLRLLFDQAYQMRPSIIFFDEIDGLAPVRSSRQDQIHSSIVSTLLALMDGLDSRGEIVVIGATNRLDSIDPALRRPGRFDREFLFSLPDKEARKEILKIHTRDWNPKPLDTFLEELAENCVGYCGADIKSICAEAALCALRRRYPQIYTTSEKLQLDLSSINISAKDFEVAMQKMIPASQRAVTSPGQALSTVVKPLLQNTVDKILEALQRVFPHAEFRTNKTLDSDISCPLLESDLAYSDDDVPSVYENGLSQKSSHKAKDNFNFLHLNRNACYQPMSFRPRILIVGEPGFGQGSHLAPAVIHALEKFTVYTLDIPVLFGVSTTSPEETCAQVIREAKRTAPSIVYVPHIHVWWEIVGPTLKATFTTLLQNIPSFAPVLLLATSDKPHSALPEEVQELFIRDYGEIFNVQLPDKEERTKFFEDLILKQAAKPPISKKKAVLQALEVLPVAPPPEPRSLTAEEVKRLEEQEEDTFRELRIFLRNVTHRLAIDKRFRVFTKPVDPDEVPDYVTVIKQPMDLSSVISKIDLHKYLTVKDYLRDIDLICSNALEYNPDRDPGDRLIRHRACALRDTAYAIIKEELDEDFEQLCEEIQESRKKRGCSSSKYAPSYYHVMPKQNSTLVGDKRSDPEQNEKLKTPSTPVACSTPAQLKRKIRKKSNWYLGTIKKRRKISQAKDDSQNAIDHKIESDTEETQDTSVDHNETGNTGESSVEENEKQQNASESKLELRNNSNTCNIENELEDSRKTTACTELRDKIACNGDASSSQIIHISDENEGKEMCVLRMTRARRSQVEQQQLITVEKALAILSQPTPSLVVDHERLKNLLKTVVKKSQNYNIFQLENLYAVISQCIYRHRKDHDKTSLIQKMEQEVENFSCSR
Briefly: Inhibition of human ATAD2A (981 to 1108 residues) expressed in Escherichia coli BL21 after 1 hr by BROMOscan assay.

The nature of data set [3]: Aqueous solubility of compound. The settings on record: buffer. Type of data set: physicochemical.
Data set [4] can be described thus: Apparent permeability across apical to basolateral side in human Caco2 cells at 10 uM after 2 hrs by LC-MS/MS analysis. Type of data set: ADME, cell-based. The settings on record: Caco-2. (In general: Caco-2 cells form a polarised layer with tight junctions and transporters.)
Data set [5] addresses Nav1.5 (Homo sapiens, UniProt Q14524). Briefly: Inhibition of Nav1.5 (unknown origin) at 30 uM.

The structures appear in SMILES notation. Converted amounts (≈) assume the structure as drawn.

Chain of Nav1.5 (Q14524 whole entry): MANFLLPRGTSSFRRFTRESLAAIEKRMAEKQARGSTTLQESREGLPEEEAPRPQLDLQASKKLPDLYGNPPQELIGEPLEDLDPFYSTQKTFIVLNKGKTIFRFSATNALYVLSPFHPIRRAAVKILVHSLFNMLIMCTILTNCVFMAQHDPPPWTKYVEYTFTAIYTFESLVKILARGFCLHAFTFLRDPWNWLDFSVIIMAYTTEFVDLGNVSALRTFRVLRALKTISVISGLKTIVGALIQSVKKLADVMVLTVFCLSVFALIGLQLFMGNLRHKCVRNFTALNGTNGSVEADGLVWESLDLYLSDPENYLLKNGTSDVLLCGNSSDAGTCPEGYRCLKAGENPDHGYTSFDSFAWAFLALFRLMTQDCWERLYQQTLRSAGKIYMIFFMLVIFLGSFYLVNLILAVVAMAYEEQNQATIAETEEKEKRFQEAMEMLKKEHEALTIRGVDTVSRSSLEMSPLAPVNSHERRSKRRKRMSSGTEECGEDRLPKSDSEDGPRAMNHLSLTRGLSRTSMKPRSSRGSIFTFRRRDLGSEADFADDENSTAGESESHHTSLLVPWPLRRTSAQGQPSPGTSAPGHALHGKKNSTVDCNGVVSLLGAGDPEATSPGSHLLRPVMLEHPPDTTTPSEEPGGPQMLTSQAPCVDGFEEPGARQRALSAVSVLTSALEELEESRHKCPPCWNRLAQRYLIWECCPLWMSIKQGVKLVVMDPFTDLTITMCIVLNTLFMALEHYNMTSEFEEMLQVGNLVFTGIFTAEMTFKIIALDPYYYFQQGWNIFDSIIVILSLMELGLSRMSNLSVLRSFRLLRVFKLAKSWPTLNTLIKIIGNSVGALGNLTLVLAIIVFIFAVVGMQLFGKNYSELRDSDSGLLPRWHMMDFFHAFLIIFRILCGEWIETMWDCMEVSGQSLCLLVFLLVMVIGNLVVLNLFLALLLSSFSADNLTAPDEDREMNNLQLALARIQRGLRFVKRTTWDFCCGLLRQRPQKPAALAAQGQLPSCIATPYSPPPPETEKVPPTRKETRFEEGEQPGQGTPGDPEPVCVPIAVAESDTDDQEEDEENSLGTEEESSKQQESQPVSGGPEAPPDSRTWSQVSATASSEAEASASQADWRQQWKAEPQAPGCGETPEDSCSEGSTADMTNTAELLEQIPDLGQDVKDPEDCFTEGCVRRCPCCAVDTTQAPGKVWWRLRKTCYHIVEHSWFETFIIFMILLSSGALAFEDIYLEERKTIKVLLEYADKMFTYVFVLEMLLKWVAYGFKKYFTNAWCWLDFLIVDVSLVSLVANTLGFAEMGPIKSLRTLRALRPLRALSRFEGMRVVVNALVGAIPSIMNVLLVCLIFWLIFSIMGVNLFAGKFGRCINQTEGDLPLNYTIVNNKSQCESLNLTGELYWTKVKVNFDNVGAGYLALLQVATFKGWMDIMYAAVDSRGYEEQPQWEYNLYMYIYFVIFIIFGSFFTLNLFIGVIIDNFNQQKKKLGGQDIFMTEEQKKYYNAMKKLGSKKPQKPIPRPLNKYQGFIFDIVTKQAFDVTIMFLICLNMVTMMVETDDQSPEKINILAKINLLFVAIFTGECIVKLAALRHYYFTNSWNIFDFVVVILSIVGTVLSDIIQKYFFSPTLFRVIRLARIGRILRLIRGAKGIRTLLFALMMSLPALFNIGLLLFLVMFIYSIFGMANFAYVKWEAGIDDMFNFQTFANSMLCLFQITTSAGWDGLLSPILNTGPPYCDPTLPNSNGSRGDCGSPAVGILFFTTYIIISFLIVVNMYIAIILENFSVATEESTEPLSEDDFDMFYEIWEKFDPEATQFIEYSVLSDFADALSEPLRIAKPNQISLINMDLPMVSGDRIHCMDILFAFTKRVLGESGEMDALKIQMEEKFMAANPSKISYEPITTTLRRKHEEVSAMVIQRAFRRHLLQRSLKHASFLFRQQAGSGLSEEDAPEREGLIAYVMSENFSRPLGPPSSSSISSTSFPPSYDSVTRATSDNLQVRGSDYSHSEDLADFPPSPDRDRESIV

In the case of `COc1cc(C#N)ccc1S(=O)(=O)Nc1ccc2c(c1)cc(C)c(=O)n2C`, the IC50 (in general, the concentration at which inhibition is half-maximal) was more than 33 µM in data set [1] and more than 100 µM in data set [2]. The amount in solution in data set [3] (solubility) came to 100 µM (≈ 38.3 µg/mL). In addition, in data set [4], the Papp A→B (commonly the apparent permeability from the apical to the basolateral side of a cell layer) at 2 h, 10 µM was 11 ×10⁻⁶ cm/s. Further, the inhibition (usually the change of the read-out against control, counted positive when it falls) at 30 µM in data set [5] is less than 40%.

The values above are taken from ChEMBL document CHEMBL4028852, “Design of a Chemical Probe for the Bromodomain and Plant Homeodomain Finger-Containing (BRPF) Family of Proteins” (J Med Chem, 2017).
